Test results reported in PMC5814585, “Modulators of actin-myosin dissociation: basis for muscle type functional differences during fatigue” (American Journal of Physiology - Cell Physiology, 2017).

What was measured:
[1] = test system: actin.PsoS1 (rabbit psoas myosin S1 bound to pyrene-actin); test: ATP-induced dissociation of pyr.actin.S1, stopped flow, pyrene fluorescence (fast, psoas); assay type: biochemical; details: for kobs of ATP-induced dissociation: 25 µM ATP; for activation energy (Ea) of K1k+2: Pso
Procedure: (§1) Myosin was prepared from the rabbit psoas (for fast MyHC-II) and the bovine masseter muscle (for slow MyHC-I) according to Margossian and Lowey ([41]), and was subsequently digested to subfragment 1 (S1) with chymotrypsin as described by Weeds and Taylor ([57]) which removes the regulatory light chain region.
(§2) Actin was prepared from rabbit muscle as described by Spudich & Watt ([52]) and labeled with pyrene iodoacetamide to give pyrene-labeled actin as described by Criddle et al. ([15]). Protein stocks of S1 and of pyrene-labeled actin were stored at 4°C and were used for up to 2 wk. In the text herein, reference to actin implies pyrene-labeled actin.
(§3) Stopped-flow experiments were performed essentially as described previously ([4]) using a HiTech Scientific SF-61DX2 stopped-flow system; 4–5 transients were acquired for each ATP transient (Kinetic Studio suite). The dead time of the equipment was 0.002 s. A wide temperature range (5–45°C) for measurements was available because of a new adaptation of the standard stopped-flow machine [see Ref. [56]). Briefly, the samples were held at room temperature (20°C) and then passed through a heat exchanger, at the temperature required for the measurement, just before entering the mixing chamber/observation chamber of the stopped flow. The samples were only exposed to the temperature of the measurement for a few seconds, thus allowing measurements of proteins under conditions where they are not usually stable for long.
(§4) The ATP-induced dissociation rate of actin.S1 was measured in the stopped flow by mixing a fixed concentration of pyr.actin.S1 complex (end concentration 0.25 µM) with excess ATP and monitoring fluorescence transients from the pyrene-labeled actin [excitation at 365 nm, emission through a KV389 nm cutoff filter (Schott, Mainz, Germany)]. Details of the kinetic analysis are given under Data Fitting and Interpretation Approach.
(§5) The averaged transients were fitted with a single (Eqn 1) or, if needed, a double exponential equation (Eqn 2):(1)) Ft=ΔF·e^(^−kobs·t)+F∞ or(2)) Ft=ΔF(1)·e^(^−kobs(1)·t)+ΔF(2)·e^(^−kobs(2)·t)+F∞ where Ft is the observed fluorescence at time t, F∞ is the fluorescence at the end of the transient (t = ∞) and ΔF is the total change of fluorescence observed. […] A plot of [ATP] vs. kobs was used to derive the values of K1 and k+2 (using Origin software version 6.0), as defined in Fig. 1 and Eqn 3.
(§6) The values of –Ea/R or or ΔH°/R were derived from the slopes.

[2] = molecular target: T1, actin.MassS1 (Bos taurus, UniProt Q9BE39); test: ADP release rate constant (k-AD), ADP displacement by excess ATP; assay type: biochemical, bovine; parameters: effect of Pi on kobs of ADP release / increase in kobs of ADP release in the presence of phosphate / activation energy (Ea) of k−AD (ADP release): dose or concentration left out as unconfirmed; details: […] mM Pi
T1 construct: from tissue; host or cells: bovine masseter muscle (myosin); rabbit muscle (actin)
Procedure: Two types of myosins were studied which are known to differ in their dissociation constant for nucleotides ([5], [51]). The rate constant for the release of ADP (k−ADP) is relatively slow for masseter S1 and can easily be measured in an ADP displacement experiment. This step is very fast for a fast muscle isoform and too fast to measure by current equipment. Briefly, actin.^MassS1 saturated with 75 µM of ADP (A.M.D complex) was mixed with a large excess of ATP (8 mM) in the stopped flow. Then the kobs values, fitted to a single exponential equation (Eqn 1) defined the rate constant by which ADP is released by the ternary A.M.D complex (k−AD).
The temperature dependence of the above studied biochemical steps K1k+2, KADP, KPi, and KADP+Pi data were plotted as the natural logarithm of the measured parameter against the reciprocal of temperature in degrees Kelvin (1/T °K) and fitted with linear regression using the Arrhenius (rate constants) or Van’t Hoff (equilibrium constants) equations(7)) lnK1k+2=ln(A)−Ea/RT (8)) lnKeq=ΔS°/R−ΔH°/RT where Ea stands for activation energy, R is the gas constant, and A is a preexponential factor. The values of –Ea/R or or ΔH°/R were derived from the slopes.

[3] = molecular target: T2, actin.MassS1 (bovine masseter myosin S1 bound to pyrene-actin) (Bos taurus, UniProt Q9BE39); test: ATP-induced dissociation of pyr.actin.S1, stopped flow, pyrene fluorescence (slow, masseter); assay type: biochemical; parameters: reduction of amplitude of the dissociation reaction in the presence of phosphate / increase of activation energy by phosphate / activation energy (Ea) of K1k+2: dose or concentration left out as unconfirmed; details: for kobs of ATP-induced dissociation: 25 µM ATP; for activation energy (Ea) of K1k+2: Mass
T2 construct: from tissue; host or cells: bovine masseter muscle (myosin); rabbit muscle (actin)
Procedure: as §1, §2, §3
as §4, with “([…])” for “(end concentration 0.25 µM)”
as §5, §6

O=P(O)(O)O [Pi, inorganic phosphate]
reduction of amplitude of the dissociation reaction in the presence of phosphate ([1]; PsoS1, 30 mM Pi): 50% | increase of activation energy by phosphate ([1]; PsoS1, both pH values, 30 mM Pi vs no Pi): about 10 kJ/mol | increase in kobs of ADP release in the presence of phosphate ([2]; pH 6.2): 30–50% | effect of Pi on kobs of ADP release ([2]; pH 7.0): little effect | reduction of amplitude of the dissociation reaction in the presence of phosphate ([3]; MassS1, […] mM Pi): 50% | increase of activation energy by phosphate ([3]; masseter, […] mM Pi vs no Pi): about 5 kJ/mol

Nc1ncnc2c1ncn2[C@@H]1O[C@H](COP(=O)(O)OP(=O)(O)OP(=O)(O)O)[C@@H](O)[C@H]1O [ATP]
kobs of ATP-induced dissociation ([1]; 0.5 µM pyr-act.PsoS1, pH 7.0, 5°C): 84.8 s⁻¹ | kobs of ATP-induced dissociation ([1]; 0.5 µM pyr-act.PsoS1, pH 7.0, 25°C): 208.5 s⁻¹ | kobs of ATP-induced dissociation ([1]; 0.5 µM pyr-act.PsoS1, pH 7.0, 35°C): 296.9 s⁻¹ | kobs of ATP-induced dissociation ([1]; 0.5 µM pyr-act.PsoS1, pH 7.0, 43°C): 374.4 s⁻¹ | kobs of ATP-induced dissociation ([1]; 0.5 µM pyr-act.PsoS1, pH 7.0, […]°C): 136.2 s⁻¹ | kobs of ATP-induced dissociation ([1]; zero ADP, 20°C, pH 7.0): 87.7 s⁻¹ | activation energy (Ea) of K1k+2 ([1]; pH 6.2, + 30 mM Pi): 9.37 ± 0.382 kcal/mol | activation energy (Ea) of K1k+2 ([1]; pH 6.2, no Pi, 5–43°C): 7 ± 0.19 kcal/mol | activation energy (Ea) of K1k+2 ([1]; pH 7.0, + 30 mM Pi): 9.01 ± 0.287 kcal/mol | activation energy (Ea) of K1k+2 ([1]; pH 7.0, no Pi, 5–43°C): 6.76 ± 0.19 kcal/mol | activation energy of the dissociation rate constant ([1]; psoas, in the presence of phosphate, irrespective of pH): 9.08 ± 0.24 kcal/mol | kobs of ATP-induced dissociation ([3]; 0.5 µM pyrAct.MassS1, pH 7.0, 5°C): 26.7 s⁻¹ | kobs of ATP-induced dissociation ([3]; 0.5 µM pyrAct.MassS1, pH 7.0, 25°C): 46.7 s⁻¹ | kobs of ATP-induced dissociation ([3]; 0.5 µM pyrAct.MassS1, pH 7.0, 35°C): 64.9 s⁻¹ | kobs of ATP-induced dissociation ([3]; 0.5 µM pyrAct.MassS1, pH 7.0, […]°C): 36.1 s⁻¹ | kobs of ATP-induced dissociation ([3]; zero ADP, 20°C, pH 7.0): 37.5 s⁻¹ | activation energy (Ea) of K1k+2 ([3]; pH 6.2, + […] mM Pi): 7.34 ± 0.17 kcal/mol | activation energy (Ea) of K1k+2 ([3]; pH 6.2, no Pi, 5–43°C): 5.69 ± 0.263 kcal/mol | activation energy (Ea) of K1k+2 ([3]; pH 7.0, + […] mM Pi): 7.15 ± 0.263 kcal/mol | activation energy (Ea) of K1k+2 ([3]; pH 7.0, no Pi, 5–43°C): 6.14 ± 0.335 kcal/mol | activation energy of the dissociation rate constant ([3]; masseter, in the presence of phosphate, irrespective of pH): 7.17 ± 0.24 kcal/mol
